From patent EP0795549A1, “Bis-aryloxy(amino)-triazinyl-oxy(amino)aryl derivatives, their preparation and their use as antiviral agents” (American Cyanamid Company, priority 1996, dated 1997)
Like-named read-outs stand apart in the source and are kept apart here.

Legend:
[1] = tested on: human foreskin fibroblasts (HF); assay: effect on cells: appearance of fixed, crystal violet-stained monolayer (HF); type: cell-based; design: key: N, no effect on the appearance of the alcohol-fixed and crystal violet-stained cell monolayer at the indicated compound concentration.; L, lightening of the intensity of staining (compared to controls) of the alcohol-fixed and crystal violet-stained cell monolayer at the indicated compound concentration but not at half that concentration
RSV (A2) = assay: viral yield reduction (growth inhibition) assay, RSV; type: cell-based, Respiratory Syncitial Virus; settings: for Antiviral IC50 µg/ml RSV/ HF / Antiviral IC50 µg/ml RSV/ Vero: Table 1a; for Antiviral IC50 µg/ml RSV/ HF: yield reduction or plaque format not specified; for Antiviral IC50 µg/ml RSV/ Vero: format not given
Procedure: (§1) The compounds were tested for biological activity using viral yield reduction assays. Host cells (indicated as HF for human foreskin fibroblasts and as vero, the commonly used African green monkey cell line, in Tables 1 and 1a) were plated at 4 x 10^4 cells/well in cell growth medium with 2% fetal bovine serum or 2% calf serum in 96-well plates (0.1 ml/well) and incubated overnight. The compounds were added to individual wells to give final concentrations ranging from 50 to 0.1 µg/ml in two-fold concentration steps. After 1 hour, virus was added, and the incubation was continued for 4 days with RSV or CMV and for 2 days with HSV. At the end of the experiment, the amount of virus growth was quantitated and the yield reduction at various concentrations of compound was calculated. This allows estimation of the concentration of compound giving 50% reduction in virus growth (IC50).

CMV (Ad169) [2] = assay: viral yield reduction (growth inhibition) assay, CMV; type: cell-based, Cytomegalovirus; settings: for Antiviral IC50 µg/ml CMV /HF: Table 1a, format not given
Procedure: as §1

HSV1 (Patton) [3] = assay: viral yield reduction (growth inhibition) assay, HSV; type: cell-based, Herpes Simplex Virus; settings: HSV1 (Patton); for Antiviral IC50 µg/ml HSV Vero: Table 1a, format not given
Procedure: as §1

vero cells = assay: effect on cells: appearance of fixed, crystal violet-stained monolayer (vero); type: cell-based, African green monkey; design: key: N, no effect on the appearance of the alcohol-fixed and crystal violet-stained cell monolayer at the indicated compound concentration.; L, lightening of the intensity of staining (compared to controls) of the alcohol-fixed and crystal violet-stained cell monolayer at the indicated compound concentration but not at half that concentration; settings: at 75 µg/ml
CMV (Ad169) [4] = assay: viral plaque reduction assay, CMV; type: cell-based, Cytomegalovirus
HSV1 (Patton) [5] = assay: viral plaque reduction assay, HSV1; type: cell-based, Herpes Simplex Virus
RSV = assay: viral plaque reduction assay, RSV; type: cell-based, Respiratory Syncitial Virus
RSV A2 = type: in vivo, cotton rats
[6] = EXPT 3, i.n. 30 mg/k d1,2,3, Lavage/CPE
[7] = EXPT 3, i.n. 30 mg/k d1,2,3, Lavage/Plaque
[8] = EXPT 3, i.n. 30 mg/k d1,2,3, Lung/Plaque
[9] = EXPT 3, i.n. d0 15 mg/k, d1 30 mg/k, Lavage/CPE
[10] = EXPT 3, i.n. d0 15 mg/k, d1 30 mg/k, Lavage/Plaque
[11] = EXPT 3, i.n. d0 15 mg/k, d1 30 mg/k, Lung/Plaque
[12] = EXPT 3, i.n. d0 15 mg/k, d1,2,3 30 mg/k, Lavage/CPE
[13] = EXPT 3, i.n. d0 15 mg/k, d1,2,3 30 mg/k, Lavage/Plaque
[14] = EXPT 3, i.n. d0 15 mg/k, d1,2,3 30 mg/k, Lung/Plaque
[15] = EXPT 3, i.p. 30 mg/k d1,2,3, Lavage/CPE
[16] = EXPT 3, i.p. 30 mg/k d1,2,3, Lavage/Plaque
[17] = EXPT 3, i.p. 30 mg/k d1,2,3, Lung/Plaque

4,4'-Bis-(4,6-bis{3-[bis-(2-carbamoyl-ethyl)-sulfamoyl]-phenylamino}- 1,3,5-triazin-2-ylamino]-biphenyl-2,2'-dicarboxylic acid, disodium salt [Example 30]
Effect on cells @ µg/ml indicated HF ([1]; at 75 µg/ml): N@75
Antiviral IC50 µg/ml RSV/ HF (RSV (A2)): 0.35 µg/mL
Antiviral IC50 µg/ml CMV /HF (CMV (Ad169) [2]): 40 µg/mL
Antiviral IC50 µg/ml HSV Vero (HSV1 (Patton) [3]): >50 µg/mL

4,4'Bis-(4,6-bis-{3-[bis-(2-hydroxy-propyl)-sulfamoyl]-phenylamino}-[1,3,5]triazin-2-ylamino)biphenyl-2,2'-disulfonic acid, disodium salt [Example 40]
Effect on cells @ µg/ml indicated HF ([1]; at 75 µg/ml): N@75
Antiviral IC50 µg/ml RSV/ HF (RSV (A2)): 0.2 µg/mL
Antiviral IC50 µg/ml CMV /HF (CMV (Ad169) [2]): 4 µg/mL
Antiviral IC50 µg/ml HSV Vero (HSV1 (Patton) [3]): 20 µg/mL
Effect on cells @ µg/ml indicated Vero (vero cells): N@75

4,4'-Bis[4,6-di[3-aminophenyl-N,N-bis(2-carbamoyl-ethyl)sulfonylimino]-1,3,5-triazin-2-ylamino]-biphenyl-2,2'-disulfonic acid, disodium salt [Example 4]
IC50µG/mL IN PLAQUE ASSAY CMV/ HF (CMV (Ad169) [4]; CMV (Ad169), HF host cells): > 30 µg/mL
IC50 (µG/ml) viral plaque formation (CMV (Ad169) [4]; HCMV Ad169, HF, Pre): >30 µg/mL
IC50µG/mL IN PLAQUE ASSAY HSV/ VER O (HSV1 (Patton) [5]; HSV1 (Patton), vero host cells): 35 µg/mL
IC50 (µG/ml) viral plaque formation (HSV1 (Patton) [5]; HSV1 Patton, VERO, Pre): 35 µg/mL
IC50 µG/mL IN GROWTH […]/ HF (RSV (A2); HF host cells): 0.1 µg/mL
IC50 µG/mL IN GROWTH […]/ VERO (RSV (A2); vero host cells): 0.1 µg/mL
IC50 (µG/ml) viral plaque formation (RSV; RSV 2B, VERO, Post 2 hours): 0.08 µg/mL
IC50 (µG/ml) viral plaque formation (RSV; RSV 3A, VERO, Post 2 hours): 0.15 µg/mL
IC50 (µG/ml) viral plaque formation (RSV; RSV 9320, VERO, Post 2 hours): 0.18 µg/mL
IC50 (µG/ml) viral plaque formation (RSV; RSV 18736, VERO, Post 2 hours): 0.06 µg/mL
IC50µG/mL IN PLAQUE ASSAY RSV/ VERO (RSV; RSV (A2), vero host cells): 0.1 µg/mL
IC50 (µG/ml) viral plaque formation (RSV; RSV A2, VERO, Post 2 hours): 0.28 µg/mL
IC50 (µG/ml) viral plaque formation (RSV; RSV A2, VERO, Pre (pretreatment)): 0.1 µg/mL
IC50 (µG/ml) viral plaque formation (RSV; RSV LONG, VERO, Post 2 hours): 0.21 µg/mL
IC50 (µG/ml) viral plaque formation (RSV; RSV RSS2, VERO, Post 2 hours): 0.20 µg/mL
active against all RSV strains tested (plaque assays) (RSV; all RSV strains tested): 0.1 to 0.7 µg/mL
IC50 µG/mL IN GROWTH […]/ HF (CMV (Ad169) [2]; HF host cells): 35 µg/mL
Fold red. log10 (RSV A2; [6]): 2.51 log10
Mean titer log10/g lung (RSV A2; [6]): 1.67 log10/g lung
Fold red. log10 (RSV A2; [7]): 1.2 log10
Mean titer log10/g lung (RSV A2; [7]): 3.09 log10/g lung
Fold red. log10 (RSV A2; [8]): 1.18 log10
Mean titer log10/g lung (RSV A2; [8]): 3.37 log10/g lung
Fold red. log10 (RSV A2; [9]): 2.52 log10
Mean titer log10/g lung (RSV A2; [9]): 1.66 log10/g lung
Fold red. log10 (RSV A2; [10]): 2.03 log10
Mean titer log10/g lung (RSV A2; [10]): 2.26 log10/g lung
Fold red. log10 (RSV A2; [11]): 2.23 log10
Mean titer log10/g lung (RSV A2; [11]): 2.32 log10/g lung
Fold red. log10 (RSV A2; [12]): 2.13 log10
Mean titer log10/g lung (RSV A2; [12]): 2.05 log10/g lung
Fold red. log10 (RSV A2; [13]): 2.04 log10
Mean titer log10/g lung (RSV A2; [13]): 2.25 log10/g lung
Fold red. log10 (RSV A2; [14]): 2.3 log10
Mean titer log10/g lung (RSV A2; [14]): 2.25 log10/g lung
Fold red. log10 (RSV A2; [15]): 0 log10
Mean titer log10/g lung (RSV A2; [15]): 4.18 log10/g lung
Fold red. log10 (RSV A2; [16]): 0.09 log10
Mean titer log10/g lung (RSV A2; [16]): 4.1 log10/g lung
Fold red. log10 (RSV A2; [17]): 0.26 log10
Mean titer log10/g lung (RSV A2; [17]): 3.92 log10/g lung
inhibition of RSV in vivo (summary in words) (RSV A2; cotton rats, summary of Table 3): inhibit RSV in vivo
Fold red. log10 (RSV A2; rat, in vivo): 1.63 log10
Mean titer log10/g lung (RSV A2; rat, in vivo): 2.05 log10/g lung
IC50 µG/mL IN GROWTH […]/ HF (HSV1 (Patton) [3]; HF host cells): 20 µg/mL
IC50 µG/mL IN GROWTH […]/ VERO (HSV1 (Patton) [3]; vero host cells): 35 µg/mL

4,4'-Bis-(4,6-bis-{3-[bis-(2-methylcarbamoyl-ethyl)-sulfamoyl]-phenylamino}-[1,3,5]triazin-2-ylamino)-biphenyl-2,2'-dicarboxylic acid, disodium salt [Example 35]
Antiviral IC50 µg/ml RSV/ HF (RSV (A2)): 6 µg/mL
Antiviral IC50 µg/ml CMV /HF (CMV (Ad169) [2]): >50 µg/mL
Antiviral IC50 µg/ml HSV Vero (HSV1 (Patton) [3]): >50 µg/mL
Effect on cells @ µg/ml indicated Vero (vero cells): N@75

1,2',1'',1'''-[(2,2'-disulfo[1,1'-biphenyl]-4,4'-diyl)-bis[imino-1,3,5-triazine-6,2,4-triylbis(imino-3,1-phenylenesulfonyl)]tetrakis[3,5-piperidinedicarboxylic acid [Example 54]
Effect on cells @ µg/ml indicated HF ([1]; at 75 µg/ml): N@75
Antiviral IC50 µg/ml RSV/ HF (RSV (A2)): 35 µg/mL
Antiviral IC50 µg/ml RSV/ Vero (RSV (A2)): >50 µg/mL
Antiviral IC50 µg/ml CMV /HF (CMV (Ad169) [2]): >50 µg/mL

(E)-2,2'-(1,2-Ethenediyl)bis[5-[[4,6-bis[[3-[[3,5-bis(aminocarbonyl)-1-piperedinyl]sulfonyl]phenyl]amino]-1,3,5-triazin-2-yl]benzenesulfonic acid], disodium salt [Example 52]
Effect on cells @ µg/ml indicated HF ([1]; at 37 µg/ml): L@37
Antiviral IC50 µg/ml RSV/ HF (RSV (A2)): 1.5 µg/mL
Antiviral IC50 µg/ml RSV/ Vero (RSV (A2)): 1.5 µg/mL
